Some test systems named below: A549 NSCLC; EKVX NSCLC; HCT-116 colon; HS 578T breast; IGROV1 ovarian; MALME-3M melanoma; MDA-MB-435; MDA-N; NCI-H522 lung; NCI/ADR-RES ovarian; SNB-19 CNS; SW-620 colon; U251 CNS; UACC-62 melanoma.
Common to all, as to test: DTP human tumour cell line panel, 48 h

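Cultured in 96-well plates, cells were exposed to test compound for 48 hours across five concentrations. At the TGI there is no net growth.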

The term TGI denotes the concentration giving total growth inhibition.

For `COC1C(=O)N(SC)C1c1ccccc1Cl` (configuration not stated), the TGI with A549 NSCLC is more than 100 µM; in the assay with EKVX NSCLC it was 64.6 µM; in the assay on HCT-116 colon, 24.4 µM; in the assay with HS 578T breast, more than 100 µM; in the assay with IGROV1 ovarian it was 38.6 µM; in the assay with MALME-3M melanoma, 44.4 µM. The total growth inhibition concentration (TGI) was 53.9 µM with MDA-MB-435; more than 100 µM with MDA-N; 33.5 µM in the assay on NCI-H522 lung; more than 100 µM in the assay with NCI/ADR-RES ovarian; more than 100 µM with SNB-19 CNS; 45.6 µM in the assay with SW-620 colon. Further, the TGI in the assay with U251 CNS and in the assay on UACC-62 melanoma was more than 100 µM in each case.

In the case of `Cc1nn(C(=O)c2ccc(Cl)cc2)c2c1C(c1ccc(Cl)cc1)SC(N)=N2` (configuration not stated), the concentration for total growth inhibition (TGI) in the assay on A549 NSCLC, with EKVX NSCLC, in the assay with HCT-116 colon, with HS 578T breast, in the assay with IGROV1 ovarian and in the assay on MALME-3M melanoma was more than 10 µM each time. Further, the concentration for total growth inhibition (TGI) with MDA-MB-435, with MDA-N, in the assay with NCI-H522 lung, in the assay on NCI/ADR-RES ovarian, in the assay with SNB-19 CNS and in the assay on SW-620 colon was more than 10 µM in each case. Besides, the TGI with U251 CNS and in the assay with UACC-62 melanoma was more than 10 µM each time.

On to `CC(=O)OC(C)c1cc2c(s1)C(=O)c1ccsc1C2=O` (configuration not stated), for which the TGI was 2.66 µM in the assay on A549 NSCLC; 2.74 µM in the assay with EKVX NSCLC; 0.769 µM with HCT-116 colon; 0.422 µM in the assay with HS 578T breast; 1.55 µM with IGROV1 ovarian; 0.246 µM in the assay with MALME-3M melanoma. In addition, the total growth inhibition concentration (TGI) in the assay with MDA-MB-435 worked out at 0.0301 µM; in the assay on MDA-N, 0.0544 µM; in the assay with NCI-H522 lung, 0.354 µM; with NCI/ADR-RES ovarian, 0.992 µM; in the assay with SNB-19 CNS, 0.317 µM; in the assay with SW-620 colon, 0.835 µM. Moreover, the TGI was determined as 1.11 µM in the assay on U251 CNS and 0.23 µM with UACC-62 melanoma.

As to `Nc1ncc2c(n1)-c1ccccc1OC2N1CCOCC1` (configuration not stated), the TGI in the assay on A549 NSCLC, in the assay with EKVX NSCLC, in the assay on HCT-116 colon, in the assay with HS 578T breast, in the assay with IGROV1 ovarian and in the assay with MALME-3M melanoma was more than 100 µM in each case. In addition, the total growth inhibition concentration (TGI) in the assay on MDA-MB-435, in the assay on MDA-N, with NCI-H522 lung, in the assay on NCI/ADR-RES ovarian, in the assay with SNB-19 CNS and in the assay on SW-620 colon was more than 100 µM in each case. For the same molecule, the TGI in the assay with U251 CNS and with UACC-62 melanoma was more than 100 µM throughout.

As to `COc1cc2c(cc1O)C(=O)O[C@@H]1CC=C3CCN(C)[C@H]3[C@H]21`, the total growth inhibition concentration (TGI) with A549 NSCLC, in the assay with EKVX NSCLC, with HCT-116 colon, with HS 578T breast, with IGROV1 ovarian and in the assay with MALME-3M melanoma was more than 25 µM each time. In addition, the concentration for total growth inhibition (TGI) in the assay on MDA-MB-435, with MDA-N, in the assay on NCI-H522 lung, in the assay on NCI/ADR-RES ovarian, in the assay with SNB-19 CNS and with SW-620 colon was more than 25 µM throughout. The TGI with U251 CNS and with UACC-62 melanoma was more than 25 µM throughout.

In the case of `CCOC(=O)/C(=C\c1c(C)[nH]c2ccccc12)P(=O)(OCC)OCC`, the TGI with A549 NSCLC, in the assay with EKVX NSCLC, in the assay with HCT-116 colon, with HS 578T breast, with IGROV1 ovarian and with MALME-3M melanoma was more than 100 µM each time. Besides, the TGI with MDA-MB-435, in the assay with MDA-N, in the assay with NCI-H522 lung, in the assay on NCI/ADR-RES ovarian, in the assay with SNB-19 CNS and in the assay with SW-620 colon was more than 100 µM in each case. In addition, the TGI with U251 CNS and in the assay on UACC-62 melanoma was more than 100 µM each time.

Take `COC(=O)[C@@H]1[C@H]2CC[C@]3(C)[C@@H](OC(C)=O)CC[C@H]3[C@@H]2CC[C@H]1C(C)=O`: the TGI in the assay with A549 NSCLC, in the assay with EKVX NSCLC, with HCT-116 colon, in the assay on HS 578T breast, in the assay on IGROV1 ovarian and with MALME-3M melanoma was more than 100 µM in each case. Moreover, the total growth inhibition concentration (TGI) in the assay on MDA-MB-435, with MDA-N, with NCI-H522 lung, in the assay on NCI/ADR-RES ovarian, in the assay on SNB-19 CNS and in the assay with SW-620 colon was more than 100 µM in each case. Moreover, the total growth inhibition concentration (TGI) with U251 CNS and in the assay on UACC-62 melanoma was more than 100 µM in each case.

Turning to `NC(=O)NC(=O)c1cccc(NC(=O)CCl)c1`, the concentration for total growth inhibition (TGI) was more than 28.1 µM in the assay on A549 NSCLC; 26.5 µM in the assay on EKVX NSCLC; 1.83 µM in the assay with HCT-116 colon; more than 21.7 µM in the assay with HS 578T breast; 12.7 µM with IGROV1 ovarian; more than 48.1 µM in the assay with MALME-3M melanoma. Besides, the concentration for total growth inhibition (TGI) in the assay with MDA-MB-435 is 5.93 µM; with MDA-N, 1.08 µM; in the assay on NCI-H522 lung, 3.32 µM; with NCI/ADR-RES ovarian, 12 µM; in the assay on SNB-19 CNS, more than 26.1 µM; with SW-620 colon it was 18.9 µM. Moreover, the TGI with U251 CNS worked out at 2.41 µM; with UACC-62 melanoma, 2.63 µM.

As to `Oc1cccc2ccc(Br)nc12`, the TGI in the assay with A549 NSCLC, in the assay with EKVX NSCLC, in the assay on HCT-116 colon, in the assay with HS 578T breast, with IGROV1 ovarian and with MALME-3M melanoma was more than 100 µM each time. Besides, the total growth inhibition concentration (TGI) in the assay with MDA-MB-435, with MDA-N, in the assay on NCI-H522 lung, in the assay with NCI/ADR-RES ovarian, in the assay on SNB-19 CNS and with SW-620 colon was more than 100 µM in each case. In addition, the concentration for total growth inhibition (TGI) in the assay on U251 CNS and in the assay on UACC-62 melanoma was more than 100 µM throughout.

On to `O=Cc1ccc(-c2ccc(S(=O)(=O)O)cc2)o1`, for which the TGI in the assay with A549 NSCLC, in the assay with EKVX NSCLC, in the assay on HCT-116 colon, in the assay with HS 578T breast, in the assay with IGROV1 ovarian and with MALME-3M melanoma was more than 100 µM throughout. Further, the TGI in the assay with MDA-MB-435, in the assay with MDA-N, in the assay on NCI-H522 lung, in the assay on NCI/ADR-RES ovarian, in the assay with SNB-19 CNS and in the assay with SW-620 colon was more than 100 µM in each case. Besides, the total growth inhibition concentration (TGI) in the assay with U251 CNS and in the assay on UACC-62 melanoma was more than 100 µM each time.

Consider `COC1OC(Cn2cc([N+](=O)[O-])nc2C)C(O)C(O)C1O` (configuration not stated), for which the TGI in the assay with A549 NSCLC, in the assay on EKVX NSCLC, in the assay with HCT-116 colon, in the assay on HS 578T breast, in the assay with IGROV1 ovarian and in the assay with MALME-3M melanoma was more than 100 µM throughout. In addition, the TGI with MDA-MB-435, with MDA-N, with NCI-H522 lung, in the assay with NCI/ADR-RES ovarian, in the assay on SNB-19 CNS and with SW-620 colon was more than 100 µM in each case. The TGI in the assay with U251 CNS and with UACC-62 melanoma was more than 100 µM in each case.

In the case of `Cc1cnc2[nH]c(-c3ccc(Cl)cc3)cc(=O)c2c1`, the TGI was more than 100 µM in the assay with A549 NSCLC; more than 100 µM with EKVX NSCLC; more than 29.3 µM in the assay with HCT-116 colon; more than 100 µM in the assay with HS 578T breast; more than 100 µM in the assay on IGROV1 ovarian; more than 100 µM in the assay with MALME-3M melanoma. Further, the concentration for total growth inhibition (TGI) in the assay with MDA-MB-435 was 1.97 µM; in the assay with MDA-N it was 3.61 µM; with NCI-H522 lung it was more than 100 µM; in the assay with NCI/ADR-RES ovarian it was more than 26.3 µM; with SNB-19 CNS it was more than 100 µM; in the assay with SW-620 colon it was more than 100 µM. Moreover, the TGI with U251 CNS was more than 32.4 µM; with UACC-62 melanoma, more than 100 µM.

For the molecule `O=c1[nH]c(=O)n(C2CC(O)C(COP(=O)(OCC(Cl)(Cl)Cl)OCC(Cl)(Cl)Cl)O2)cc1F` (configuration not stated), the TGI with A549 NSCLC, in the assay with EKVX NSCLC, in the assay with HCT-116 colon, with HS 578T breast, in the assay on IGROV1 ovarian and in the assay on MALME-3M melanoma was more than 100 µM each time. The TGI was more than 100 µM with MDA-MB-435; more than 100 µM in the assay on MDA-N; more than 34.8 µM in the assay with NCI-H522 lung; more than 100 µM in the assay on NCI/ADR-RES ovarian; more than 100 µM in the assay with SNB-19 CNS; more than 100 µM in the assay with SW-620 colon. Further, the TGI in the assay on U251 CNS and with UACC-62 melanoma was more than 100 µM throughout.

For the origin of these results see PubChem BioAssay (NCI).
